Source: US6093692A, “Method and compositions for lipidization of hydrophilic molecules” (The University of Southern California, priority 1997, dated 2000)
Values belong to the molecule of their own block, whether it stands above or below them.

Legend:
[1] = Plasma calcitonin and calcium after subcutaneous administration; type: in vivo, mice; settings: s.c., 125 μg/kg in 10% Liposyn II
Procedure: Both CT and CT-P were iodinated with ^125 I using chloramine T method. ^125 I-CT or ^125 I-CT-P was injected s.c. into mice at a dose of 125 μg/kg in 10% Liposyn® II (Abbott). Groups of three mice were sacrificed at different time points. The levels of calcium in the blood samples were determined by using a commercial calcium diagnostic kit (Sigma Chemical Co.). The plasma from each mouse was isolated and treated with 5% trichloroacetic acid (TCA) in an ice bath. The radioactivity in the hs TCA precipitates were considered as the intact CT in the plasma.

[2] = Gastro-intestinal absorption and calcium-lowering effect after oral administration; type: in vivo, CF mice; settings: 100 μg/kg in PBS, one hour, CT-RIA, N = 3, S.D.
Procedure: CT and CT-P were orally administered to CF mice using a gavaging needle at a dose of 100 μg/kg in PBS. The mice, three of each group, were sacrificed 1 hour after the treatment, and the plasma was isolated from their blood. The levels of CT and calcium were measured by using commercial CT-RIA (Phoenix) and calcium diagnostic (Sigma Chemical Co.) kits, respectively. […] Furthermore, the level of calcium in plasma at 1 hour was lower in CT-P treated mice than that in CT treated mice, which was consistent with the finding in CT levels. Because the crossreactivity of CT-P to the anti-CT antibody is only about 10%, the actual concentration of total CT in the plasma of CT-P treated mice could be even higher than the value presented in Table 5.

[3] = test system: mouse fibroblasts L929 cells; experiment: Cellular uptake of HRPssPal; type: cell-based; settings: 30 μg/ml, serum-free medium, 1 hour, 37° C.
Procedure: Confluent monolayers of mouse fibroblasts L929 cells in 6-well culture cluster plates were incubated in serum-free medium with 30 μg/ml of HRP, either as the native form or as the palmitic acid conjugate (HRPssPal). After 1 hour at 37° C., monolayers were washed three times with PBS and then dissolved in 1 ml of 0.05% of Triton-X100. Cell-associated HRP was determined by measuring the enzymatic activity in each cell extract and the results converted to ng HRP per cell monolayer. […] Therefore, a 30-fold increase in cell uptake was achieved by modification of HRP with Pal-PDC.

[4] = test system: Brattleboro rats with hereditary hypothalamic diabetes insipidus; experiment: Anti-diuretic effects in rats with hereditary hypothalamic diabetes insipidus, subcutaneous; type: in vivo; settings: s.c., 3.3 μg/kg in 10% Liposyn II, FIG. 7
Procedure: Brattleboro rats, which carry the hereditary disease of hypothalamic diabetes insipidus, were used to compare the effects of DP and DP-P for alleviating the disease symptoms, i.e., polyuria and polydipsia. A group of three Brattleboro rats were kept separately in three metabolic cages. Their body weight, water intake and urine output were measured every day. DP and DP-P were dissolved in 10% Liposyn® II (Abbott Laboratories, Abbott Park, Ill., USA) and injected subcutaneously (s.c.) to each rat at doses ranging from 0.02 to 20 μg/kg. […] On the other hand, DP-P at the identical dose could maintain the rats symptom-free for more than 3 days, as indicated by the reduction of both water intake and urine output without significant change of the body weight.
In order to evaluate the dose-dependent responses to DP and DP-P in Battleboro rats, the effectiveness of anti-diuretic activity was defined as the length of time that a more than 50% reduction of the urine volume can be maintained in the treated animals.

Caco-2 monolayers = type: in vitro ADME, Human
Procedure: Suspended Caco-2 cells in 1.5 ml of medium were seeded into the apical chamber of the transwells at a density of 0.5 million cells per insert. 2.5 ml of the medium was then added to the basal chambers of each transwell. The cells were allowed to attach for 2 days without disturbance and were then fed every other day until the experiments were performed. The cells were maintained for approximately 14-20 days prior to the experiments and were fed 24 hr before each experiment. The cell monolayers developed a transepithelial electrical resistance (TEER) of approximately 500-600 .OMEGA.) cm^2 within one week of the seeding and maintained this resistance for up to 21 days post-seeding.
Confluent cell monolayers, 2 to 3 weeks old, and having a TEER value of approximately 500 .OMEGA. cm^2, were first incubated with Dulbecco's MEM containing 1% of FBS for 30 min at 37° C. […] At predetermined times, the entire basal chamber medium (2.5 ml) from each transwell was removed and counted for radioactivity using a gamma counter. […] After the 24 hr samples were taken, the cell monolayers were rinsed three times with ice-cold PBS, cut out of the inserts, and counted for accumulated radioactivity using a gamma counter. […]
BBI was modified with 2 or 4 palmitic acids, and the transport was determined in transwells. […]

Plasma clearance [1]: rapid plasma clearance
Plasma calcitonin concentration, CT [2]: 9.2 ± 0.7 pg/0.1 ml plasma
Molecule: CC(C)C[C@H](NC(=O)[C@H](CCCCN)NC(=O)CNC(=O)[C@H](CC(C)C)NC(=O)[C@@H](NC(=O)[C@@H]1CSSC[C@H](N)C(=O)N[C@@H](CO)C(=O)N[C@@H](CC(N)=O)C(=O)N[C@@H](CC(C)C)C(=O)N[C@@H](CO)C(=O)N[C@@H]([C@@H](C)O)C(=O)N1)C(C)C)C(=O)N[C@@H](CO)C(=O)N[C@@H](CCC(N)=O)C(=O)N[C@@H](CCC(=O)O)C(=O)N[C@@H](CC(C)C)C(=O)N[C@@H](Cc1c[nH]cn1)C(=O)N[C@@H](CCCCN)C(=O)N[C@@H](CC(C)C)C(=O)N[C@@H](CCC(N)=O)C(=O)N[C@H](C(=O)N[C@@H](Cc1ccc(O)cc1)C(=O)N1CCC[C@H]1C(=O)N[C@@H](CCCNC(=N)N)C(=O)N[C@H](C(=O)N[C@@H](CC(N)=O)C(=O)N[C@H](C(=O)NCC(=O)N[C@@H](CO)C(=O)NCC(=O)N[C@H](C(=O)N1CCC[C@H]1C(N)=O)[C@@H](C)O)[C@@H](C)O)[C@@H](C)O)[C@@H](C)O [CT, Salmon calcitonin]

Molecule: horseradish peroxidase [HRP]
Cellular uptake [3]: 7 ng HRP per cell monolayer

Molecule: NC(=O)CC[C@@H]1NC(=O)[C@H](Cc2ccccc2)NC(=O)[C@H](Cc2ccc(O)cc2)NC(=O)CCSSC[C@@H](C(=O)N2CCC[C@H]2C(=O)N[C@H](CCCN=C(N)N)C(=O)NCC(N)=O)NC(=O)[C@H](CC(N)=O)NC1=O [DP, Desmopressin]
Time rats maintained symptom-free [4]: less than one

B1: BBIssPal(4): BBI modified with 4 palmitic acids (conjugate, UniProt P01055 40-110, looked up)
Bowman-Birk type proteinase …: DDESSKPCCDQCACTKSNPPQCRCSDMRLNSCHSACKSCICALSYPAQCFCVDITDFCYEPCKPSEDDKEN
modifications: 4 palmityl disulfide groups
notes: BBI modified with 4 palmitic acids
Internalization of the conjugates into the cells (rank) (Caco-2 monolayers): highest uptake into the cells
